1 compound from patent US6806359B1, “Hormone receptor compositions and methods” (The Salk Institute for Biological Studies, priority 1986, dated 2004) can be followed below.

The test deals with T1, hMR (Homo sapiens, UniProt P08235).
T1 sequence (P08235 1-984): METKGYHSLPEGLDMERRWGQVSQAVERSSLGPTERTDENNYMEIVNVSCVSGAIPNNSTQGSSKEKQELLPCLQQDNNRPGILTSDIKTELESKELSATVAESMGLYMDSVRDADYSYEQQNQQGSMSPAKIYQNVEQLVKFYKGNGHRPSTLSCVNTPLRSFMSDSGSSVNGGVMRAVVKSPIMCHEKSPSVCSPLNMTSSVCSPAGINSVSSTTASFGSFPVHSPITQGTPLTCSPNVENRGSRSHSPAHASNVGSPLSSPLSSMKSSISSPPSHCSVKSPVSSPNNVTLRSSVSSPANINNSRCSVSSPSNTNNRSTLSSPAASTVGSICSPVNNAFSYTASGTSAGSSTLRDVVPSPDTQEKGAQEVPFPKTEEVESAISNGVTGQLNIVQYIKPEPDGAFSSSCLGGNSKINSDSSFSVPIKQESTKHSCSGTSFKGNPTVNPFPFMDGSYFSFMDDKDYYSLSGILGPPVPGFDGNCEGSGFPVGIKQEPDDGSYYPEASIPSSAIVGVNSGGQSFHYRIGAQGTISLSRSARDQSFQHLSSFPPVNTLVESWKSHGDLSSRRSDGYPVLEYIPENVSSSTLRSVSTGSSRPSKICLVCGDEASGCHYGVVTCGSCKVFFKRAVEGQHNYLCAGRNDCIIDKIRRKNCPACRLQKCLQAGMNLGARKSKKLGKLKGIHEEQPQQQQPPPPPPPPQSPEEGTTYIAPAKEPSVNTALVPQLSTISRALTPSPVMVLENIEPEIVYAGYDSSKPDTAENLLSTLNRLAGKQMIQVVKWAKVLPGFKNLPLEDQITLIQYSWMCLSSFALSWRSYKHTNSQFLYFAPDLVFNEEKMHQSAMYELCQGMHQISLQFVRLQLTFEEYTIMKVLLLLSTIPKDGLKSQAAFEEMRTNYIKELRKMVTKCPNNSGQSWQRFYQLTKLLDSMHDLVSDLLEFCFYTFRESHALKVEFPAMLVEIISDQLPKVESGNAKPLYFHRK
Briefly: [^3H]aldosterone binding and steroid competition in extracts of pRShMR-transfected COS cells. Also on record: expressed in transfected cells; host or cells: COS cells transfected with pRShMR (DEAE-dextran). The note with it: 1-, 10-, or 100-fold molar excess of unlabeled steroid. The procedure: Ligand specificity of the hMR protein was determined by preparing cytosol extracts from COS cells transfected with pRShMR. Two days after transfection, cells were harvested, and hormone binding was measured by a dextran-treated charcoal assay. […] This provided a measure of the relative affinity of each of these steroids for hMR.
Steroid-binding properties of expressed hMR. FIG. 38 Structure of pRShMR, the hMR expression plasmid (41). […] Each point was assayed in triplicate with 100 micrograms of extract protein in a 200-microliter incubation at 0° C. for 2.5 hours. […] The results of two independent trials representative of these competition experiments are shown. Cold competitor was present in 1-, 10-, or 100-fold molar excess. […] Subconfluent COS cells were transfected by the DEAE-dextran method (42) with 10 micrograms of pRShMR per dish. Cells were maintained for 2 days in DMEM (Dulbecco's modification of Eagle's minimum essential medium) with 5 percent charcoal-treated fetal calf serum, then harvested in […] tris-HCl. (pH 7.8), 10 nM NaCl, 1 mM EDTA, 10 mM Na2MoO4, 5 mM dithiothreitol, antipain (5 microgram/ml), leupeptin (5 microgram/ml), and 500 microM phenylmethylsulfonyl fluoride. After centrifugation at 15,000×g for 10 minutes, extracts were adjusted to 100 mM NaCl and 5 percent glycerol before binding. […] After centrifugation at 15,000×g for 2 minutes at 40C, tritium in supernatant was quantified by liquid scintillation spectrophotometry.

For `C[C@]12CC[C@@H]3c4ccc(O)cc4CC[C@H]3[C@@H]1CC[C@@H]2O` [oestradiol], the “relative affinity for hMR by competition with 5 nM [^3H]aldosterone (in words)” value is on record as “competed very poorly”.
